The target of test [1] is Calcium/calmodulin-dependent protein kinase type 1G (Homo sapiens) (UniProt Q96NX5). Kind of test: Inhibition of human CAMK1g at 18.6 nM by HotSpot assay relative to control.
Test [2] addresses Vascular endothelial growth factor receptor 3 (Homo sapiens) (UniProt P35916). Kind of test: Inhibition of human FLT4 at 18.6 nM by HotSpot assay relative to control.
Test [3] addresses CDK9/Cyclin K (Homo sapiens) (UniProt P50750+O75909). Kind of test: Inhibition of human CDK9/cyclin K at 18.6 nM by HotSpot assay relative to control. The test is classed as protein-complex assay.
For test [4], the target named is T1, Mitogen-activated protein kinase 12 (Homo sapiens) (UniProt P53778).
T1 sequence (whole entry): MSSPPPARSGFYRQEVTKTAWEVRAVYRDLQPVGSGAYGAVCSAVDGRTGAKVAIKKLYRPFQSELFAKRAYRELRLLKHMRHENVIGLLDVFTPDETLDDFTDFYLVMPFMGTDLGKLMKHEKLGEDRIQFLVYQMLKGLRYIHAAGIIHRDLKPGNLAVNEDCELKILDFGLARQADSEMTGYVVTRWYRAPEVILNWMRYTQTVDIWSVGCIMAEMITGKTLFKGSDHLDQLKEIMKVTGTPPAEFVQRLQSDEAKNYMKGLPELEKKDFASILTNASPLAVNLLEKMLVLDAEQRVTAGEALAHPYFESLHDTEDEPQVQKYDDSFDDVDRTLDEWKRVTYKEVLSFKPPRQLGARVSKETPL
The test can be described thus: Inhibition of human P38g at 18.6 nM by HotSpot assay relative to control.

Test [5] concerns the target Dual specificity mitogen-activated protein kinase kinase 2 (Homo sapiens) (UniProt P36507). Kind of test: Inhibition of human MEK2 at 18.6 nM by HotSpot assay relative to control.
In test [6] the target is Ribosomal protein S6 kinase alpha-5 (Homo sapiens) (UniProt O75582). Kind of test: Inhibition of human RPS6KA5 at 18.6 nM by HotSpot assay relative to control.
The target in test [7] is cAMP-dependent protein kinase (PKA) (Homo sapiens) (UniProt P22694+P17612+P22612). Kind of test: Inhibition of human PKA at 18.6 nM by HotSpot assay relative to control. Format: protein assay.
Test [8] has as its target SRSF protein kinase 2 (Homo sapiens) (UniProt P78362). Kind of test: Inhibition of human SRPK2 at 1.82 nM by HotSpot assay relative to control.
Test [9] deals with Mitogen-activated protein kinase 11 (Homo sapiens) (UniProt Q15759). The test can be described thus: Inhibition of human MAPK11 at 1.82 nM by HotSpot assay relative to control.
The target in test [10] is Protein kinase C alpha type (Homo sapiens) (UniProt P17252). The test can be described thus: Inhibition of human PKCa at 1.82 nM by HotSpot assay relative to control.
Test [11] addresses Homeodomain-interacting protein kinase 2 (Homo sapiens) (UniProt Q9H2X6). The test can be described thus: Inhibition of human HIPK2 at 1.82 nM by HotSpot assay relative to control.
The target of test [12] is Mitogen-activated protein kinase 8 (Homo sapiens) (UniProt P45983). The test can be described thus: Inhibition of human JNK1 at 1.82 nM by HotSpot assay relative to control.
Test [13] addresses Mitogen-activated protein kinase 9 (Homo sapiens) (UniProt P45984). Kind of test: Inhibition of human JNK2 at 1.82 nM by HotSpot assay relative to control.
The target of test [14] is T2, Ephrin type-A receptor 1 (Homo sapiens) (UniProt P21709).
T2 sequence (whole entry): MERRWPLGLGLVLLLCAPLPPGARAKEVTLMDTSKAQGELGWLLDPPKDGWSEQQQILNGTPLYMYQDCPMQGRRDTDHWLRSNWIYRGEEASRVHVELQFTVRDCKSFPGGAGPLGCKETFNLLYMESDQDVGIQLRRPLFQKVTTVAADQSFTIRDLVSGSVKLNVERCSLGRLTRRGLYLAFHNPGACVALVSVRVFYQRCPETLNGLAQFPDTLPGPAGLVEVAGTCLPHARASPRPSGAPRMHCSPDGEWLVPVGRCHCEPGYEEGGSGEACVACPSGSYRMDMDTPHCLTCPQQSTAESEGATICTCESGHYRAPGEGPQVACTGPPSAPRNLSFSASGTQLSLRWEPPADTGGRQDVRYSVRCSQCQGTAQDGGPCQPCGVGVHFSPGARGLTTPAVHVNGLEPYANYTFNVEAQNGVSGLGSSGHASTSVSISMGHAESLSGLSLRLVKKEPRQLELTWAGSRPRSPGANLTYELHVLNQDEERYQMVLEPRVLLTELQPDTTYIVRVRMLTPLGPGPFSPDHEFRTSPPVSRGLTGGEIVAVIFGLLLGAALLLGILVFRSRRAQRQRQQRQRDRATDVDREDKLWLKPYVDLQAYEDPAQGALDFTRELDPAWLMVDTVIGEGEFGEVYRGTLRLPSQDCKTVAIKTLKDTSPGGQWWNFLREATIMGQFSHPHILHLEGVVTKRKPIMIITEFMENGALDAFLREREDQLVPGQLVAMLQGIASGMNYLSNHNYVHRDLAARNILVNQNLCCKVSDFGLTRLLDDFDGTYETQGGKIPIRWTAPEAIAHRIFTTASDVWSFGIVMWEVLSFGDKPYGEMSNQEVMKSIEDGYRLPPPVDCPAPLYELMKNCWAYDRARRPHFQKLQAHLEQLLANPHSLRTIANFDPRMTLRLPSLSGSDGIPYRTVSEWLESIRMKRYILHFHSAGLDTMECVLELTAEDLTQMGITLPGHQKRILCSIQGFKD
Kind of test: Inhibition of human EPHA1 at 1.82 nM by HotSpot assay relative to control.

Test [15] addresses T3, Mitogen-activated protein kinase kinase kinase 2 (Homo sapiens) (UniProt Q9Y2U5).
T3 sequence (whole entry): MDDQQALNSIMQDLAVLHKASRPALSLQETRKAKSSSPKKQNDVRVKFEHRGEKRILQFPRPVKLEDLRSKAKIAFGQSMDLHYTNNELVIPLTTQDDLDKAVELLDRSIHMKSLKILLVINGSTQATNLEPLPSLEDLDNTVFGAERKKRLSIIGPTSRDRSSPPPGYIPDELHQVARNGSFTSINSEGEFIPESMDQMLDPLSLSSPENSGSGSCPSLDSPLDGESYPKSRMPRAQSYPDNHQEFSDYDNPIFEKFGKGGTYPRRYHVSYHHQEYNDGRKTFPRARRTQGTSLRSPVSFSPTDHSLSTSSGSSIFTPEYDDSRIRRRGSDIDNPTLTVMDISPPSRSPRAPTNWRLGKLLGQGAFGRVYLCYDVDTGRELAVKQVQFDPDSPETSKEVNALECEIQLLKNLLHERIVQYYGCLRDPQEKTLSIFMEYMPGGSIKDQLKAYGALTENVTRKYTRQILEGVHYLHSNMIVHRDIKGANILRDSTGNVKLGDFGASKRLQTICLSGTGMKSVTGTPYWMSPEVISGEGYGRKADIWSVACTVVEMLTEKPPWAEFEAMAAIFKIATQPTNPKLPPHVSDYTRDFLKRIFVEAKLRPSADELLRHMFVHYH
Kind of test: Inhibition of human MEKK2 at 1.82 nM by HotSpot assay relative to control.

What is called inhibition is the change of the read-out against control, counted positive when it falls.

Chain of Dual specificity mitogen-activated protein kinase kinase 2 (Homo sapiens) (P36507 whole entry): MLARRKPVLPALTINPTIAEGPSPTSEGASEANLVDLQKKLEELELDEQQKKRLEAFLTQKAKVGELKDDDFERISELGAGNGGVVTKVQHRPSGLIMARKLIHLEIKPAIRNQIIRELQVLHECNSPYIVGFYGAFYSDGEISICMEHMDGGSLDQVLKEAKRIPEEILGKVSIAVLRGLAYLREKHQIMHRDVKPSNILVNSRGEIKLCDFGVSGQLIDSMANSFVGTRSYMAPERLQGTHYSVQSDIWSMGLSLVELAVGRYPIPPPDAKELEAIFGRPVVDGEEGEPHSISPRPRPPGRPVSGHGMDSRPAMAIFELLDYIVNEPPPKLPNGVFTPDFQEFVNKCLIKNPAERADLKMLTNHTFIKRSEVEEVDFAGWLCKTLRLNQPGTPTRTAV
Chain of Calcium/calmodulin-dependent protein kinase type 1G (Homo sapiens) (Q96NX5 whole entry): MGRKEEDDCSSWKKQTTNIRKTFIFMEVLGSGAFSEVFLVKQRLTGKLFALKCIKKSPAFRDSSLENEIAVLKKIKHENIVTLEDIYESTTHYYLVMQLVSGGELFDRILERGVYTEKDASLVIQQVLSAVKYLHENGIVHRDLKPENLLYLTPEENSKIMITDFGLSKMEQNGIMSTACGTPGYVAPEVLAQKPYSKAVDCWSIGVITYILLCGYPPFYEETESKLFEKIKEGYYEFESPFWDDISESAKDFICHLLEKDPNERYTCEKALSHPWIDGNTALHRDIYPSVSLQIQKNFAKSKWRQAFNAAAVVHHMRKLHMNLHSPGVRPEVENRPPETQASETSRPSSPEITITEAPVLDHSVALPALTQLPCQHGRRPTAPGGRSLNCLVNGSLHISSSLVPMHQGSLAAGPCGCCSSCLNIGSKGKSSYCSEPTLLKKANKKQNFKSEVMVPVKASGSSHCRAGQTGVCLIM
Chain of Vascular endothelial growth factor receptor 3 (Homo sapiens) (P35916 whole entry): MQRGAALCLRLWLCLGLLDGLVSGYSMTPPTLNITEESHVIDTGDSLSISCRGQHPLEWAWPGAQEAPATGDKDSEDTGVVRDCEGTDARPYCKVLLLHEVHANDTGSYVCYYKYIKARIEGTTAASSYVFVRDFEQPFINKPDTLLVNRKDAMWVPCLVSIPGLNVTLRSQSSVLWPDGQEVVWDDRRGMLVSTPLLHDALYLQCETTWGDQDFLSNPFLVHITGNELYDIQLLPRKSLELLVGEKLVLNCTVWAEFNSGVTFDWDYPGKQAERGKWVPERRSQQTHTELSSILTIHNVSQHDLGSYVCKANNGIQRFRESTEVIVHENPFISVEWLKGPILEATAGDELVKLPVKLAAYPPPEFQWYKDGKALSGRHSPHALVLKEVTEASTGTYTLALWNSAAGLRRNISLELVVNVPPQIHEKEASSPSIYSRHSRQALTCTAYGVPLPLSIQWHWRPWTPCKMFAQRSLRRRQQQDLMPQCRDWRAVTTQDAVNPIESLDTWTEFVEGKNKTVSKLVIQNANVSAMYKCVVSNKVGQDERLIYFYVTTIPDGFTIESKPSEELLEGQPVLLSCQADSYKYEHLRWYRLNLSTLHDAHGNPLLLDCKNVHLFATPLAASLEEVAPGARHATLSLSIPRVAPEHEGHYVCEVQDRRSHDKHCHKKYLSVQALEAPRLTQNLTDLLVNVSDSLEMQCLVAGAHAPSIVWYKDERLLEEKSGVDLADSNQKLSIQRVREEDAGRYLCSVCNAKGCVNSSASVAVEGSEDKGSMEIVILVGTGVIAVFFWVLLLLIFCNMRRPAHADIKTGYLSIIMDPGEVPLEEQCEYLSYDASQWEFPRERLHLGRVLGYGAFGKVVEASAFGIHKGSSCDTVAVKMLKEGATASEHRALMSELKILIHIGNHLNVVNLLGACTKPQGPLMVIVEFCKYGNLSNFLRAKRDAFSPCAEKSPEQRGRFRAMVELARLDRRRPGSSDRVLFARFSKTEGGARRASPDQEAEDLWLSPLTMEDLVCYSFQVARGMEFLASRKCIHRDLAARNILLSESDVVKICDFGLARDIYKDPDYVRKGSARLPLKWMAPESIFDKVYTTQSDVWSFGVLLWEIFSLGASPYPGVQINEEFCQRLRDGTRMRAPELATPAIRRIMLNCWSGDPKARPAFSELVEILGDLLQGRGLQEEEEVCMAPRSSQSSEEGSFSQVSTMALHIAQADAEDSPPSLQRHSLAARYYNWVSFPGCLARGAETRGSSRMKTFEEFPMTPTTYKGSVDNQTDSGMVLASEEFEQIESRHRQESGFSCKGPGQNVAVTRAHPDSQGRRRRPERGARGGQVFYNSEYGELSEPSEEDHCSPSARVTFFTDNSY
Chain of Ribosomal protein S6 kinase alpha-5 (Homo sapiens) (O75582 whole entry, looked up): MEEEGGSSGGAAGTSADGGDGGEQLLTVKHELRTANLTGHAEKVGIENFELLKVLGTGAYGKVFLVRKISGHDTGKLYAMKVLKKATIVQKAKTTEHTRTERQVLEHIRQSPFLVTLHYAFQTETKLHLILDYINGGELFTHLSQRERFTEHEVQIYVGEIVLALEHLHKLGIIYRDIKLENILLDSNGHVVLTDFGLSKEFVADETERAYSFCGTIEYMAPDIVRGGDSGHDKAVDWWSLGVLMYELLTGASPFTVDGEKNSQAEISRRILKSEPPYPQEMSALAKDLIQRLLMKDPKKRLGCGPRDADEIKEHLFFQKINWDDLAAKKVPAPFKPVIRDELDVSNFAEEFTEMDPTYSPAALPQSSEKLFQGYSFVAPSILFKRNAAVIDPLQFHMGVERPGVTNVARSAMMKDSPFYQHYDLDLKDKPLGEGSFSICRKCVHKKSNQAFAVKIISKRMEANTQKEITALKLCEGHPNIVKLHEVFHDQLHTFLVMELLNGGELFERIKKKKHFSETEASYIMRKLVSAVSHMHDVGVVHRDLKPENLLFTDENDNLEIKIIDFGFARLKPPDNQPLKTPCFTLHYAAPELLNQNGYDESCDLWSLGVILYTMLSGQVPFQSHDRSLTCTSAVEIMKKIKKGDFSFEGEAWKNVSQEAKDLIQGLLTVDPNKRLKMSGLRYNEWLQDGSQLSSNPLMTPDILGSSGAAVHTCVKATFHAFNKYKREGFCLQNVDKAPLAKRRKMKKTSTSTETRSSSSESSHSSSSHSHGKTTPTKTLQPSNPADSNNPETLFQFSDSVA
Chain of SRSF protein kinase 2 (Homo sapiens) (P78362 whole entry, looked up): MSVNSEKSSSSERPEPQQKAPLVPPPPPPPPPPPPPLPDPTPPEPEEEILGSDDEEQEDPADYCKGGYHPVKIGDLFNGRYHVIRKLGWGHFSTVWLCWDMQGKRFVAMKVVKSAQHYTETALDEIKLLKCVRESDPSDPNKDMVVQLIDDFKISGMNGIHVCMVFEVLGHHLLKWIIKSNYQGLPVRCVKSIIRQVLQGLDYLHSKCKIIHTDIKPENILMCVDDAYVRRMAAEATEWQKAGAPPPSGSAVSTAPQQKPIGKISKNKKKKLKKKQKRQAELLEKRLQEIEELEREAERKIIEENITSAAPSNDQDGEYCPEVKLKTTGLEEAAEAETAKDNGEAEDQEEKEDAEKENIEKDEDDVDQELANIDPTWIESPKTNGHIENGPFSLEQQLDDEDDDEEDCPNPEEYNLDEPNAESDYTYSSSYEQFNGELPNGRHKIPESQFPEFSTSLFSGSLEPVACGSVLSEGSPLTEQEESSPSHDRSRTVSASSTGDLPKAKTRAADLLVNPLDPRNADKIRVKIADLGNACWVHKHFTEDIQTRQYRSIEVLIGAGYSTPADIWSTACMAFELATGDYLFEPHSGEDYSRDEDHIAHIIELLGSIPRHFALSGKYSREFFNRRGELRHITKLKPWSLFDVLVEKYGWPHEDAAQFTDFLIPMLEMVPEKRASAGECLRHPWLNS
Chain of Mitogen-activated protein kinase 11 (Homo sapiens) (Q15759 whole entry): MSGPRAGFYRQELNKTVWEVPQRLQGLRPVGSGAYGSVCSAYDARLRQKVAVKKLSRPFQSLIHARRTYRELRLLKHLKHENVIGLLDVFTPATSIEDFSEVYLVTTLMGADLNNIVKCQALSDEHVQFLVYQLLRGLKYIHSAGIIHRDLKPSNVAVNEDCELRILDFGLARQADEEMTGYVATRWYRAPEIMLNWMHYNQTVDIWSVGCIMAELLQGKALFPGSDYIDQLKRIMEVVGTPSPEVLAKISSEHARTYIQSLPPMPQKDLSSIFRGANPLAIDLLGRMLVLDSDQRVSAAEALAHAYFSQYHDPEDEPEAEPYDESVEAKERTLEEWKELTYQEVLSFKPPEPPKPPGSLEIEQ

As to `C[C@]1(O)C[C@@H](c2nc(-c3ccc4ccc(-c5ccccc5)nc4c3)c3c(N)nccn32)C1`, the inhibition in test [1] was 6.69%; in test [2] it was -2.25%; in test [3], 1.45%; in [4], -7.84%; in [5] it was -5.1%; in test [6], -5.75%. In [7], the inhibition was -8.62%.
Take `C[C@@]1(C(=O)Nc2ccc(F)nc2)CCCN1c1nc(Nc2cc(C3CC3)n[nH]2)c2cccn2n1`: the inhibition in [8] is -2.03%; in [9], -1.71%; in test [10], -5.95%; in test [11], 3.96%; in [12] it was -1.19%; in test [13], -2.41%. In addition, the inhibition is -4.67% in test [14] and -7.18% in test [15].
